Paper PMC7926937, “Suramin Targets the Conserved Ligand-Binding Pocket of Human Raf1 Kinase Inhibitory Protein” (Molecules, 2021)
Changes are numbered by the printed parent chain. Where two headings read alike, the source gives them in different places.

Tests used:
hRKIP [1] = biological target: T1, hRKIP (Homo sapiens, UniProt P30086); experiment: BLI assay of ligand binding to wild-type hRKIP
T1 construct: made in house; host or cells: E. coli
Procedure: (§1) Both unlabeled and ^15N-labeled hRKIP proteins were prepared as described previously. Eight hRKIP mutants (P74L, Y81A, S109A, P111L, P112L, K113A, W173A, and Y181A) were generated by site-directed mutagenesis using the vector of pReceiver-B01a-RKIP as the template and confirmed by DNA sequencing. All protein purifications were performed at 4 °C. Protein purities were verified by polyacrylamide gel electrophoresis, and protein concentrations were measured by NanoVue (GE Heathcare Co, Boston, MA, USA).
(§2) The interaction between hRKIP and suramin was detected by using the ForteBio Octet Red system (ForteBio, Inc, San Francisco, CA, USA). The wild-type His-tagged hRKIP protein or its mutant was immobilized onto NTA reactive biosensors, and the captured biosensors were individually dipped into the wells containing various concentrations of suramin (25, 50, 100, 200, and 400 μM). The association at each suramin concentration was detected for 900 s, while the dissociation was monitored for 1800 s. The sensors loading hRKIP without suramin were used as controls to correct baseline drifts. The wells containing various concentrations of suramin without loading protein served as references. The association and dissociation responses were corrected and processed using Octet Data Analysis Software (Version 7.0, ForteBio, Inc, San Francisco, CA, USA). The interferometry data were fitted using the 1:1 Langmuir binding model.

hRKIP [2] = biological target: T1, hRKIP; parameters: method as in PMID 30137201; conditions: PE binding to hRKIP ref 34; cited from earlier work
hRKIP P74L mutant = biological target: T2, hRKIP P74L mutant (Homo sapiens, UniProt P30086, P74L); experiment: BLI assay of suramin binding to hRKIP mutant P74L
T2 construct: made in house; host or cells: E. coli
T2 sequence (P30086 1-187 P74L): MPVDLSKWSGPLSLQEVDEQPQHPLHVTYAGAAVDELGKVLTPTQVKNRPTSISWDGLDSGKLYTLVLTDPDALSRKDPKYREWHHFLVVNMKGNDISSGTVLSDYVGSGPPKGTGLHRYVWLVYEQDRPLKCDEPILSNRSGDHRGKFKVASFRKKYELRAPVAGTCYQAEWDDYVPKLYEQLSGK
Procedure: as §1, §2

HEK293T cell = experiment: MTS experiments on HEK293T cells; format: cell-based; conditions: Homo sapiens, HEK-293T
hRKIP Y81A mutant = biological target: T3, hRKIP Y81A mutant (Homo sapiens, UniProt P30086, Y81A); experiment: BLI assay of suramin binding to hRKIP mutant Y81A
T3 construct: made in house; host or cells: E. coli
T3 sequence (P30086 1-187 Y81A): T2 sequence (P30086 1-187 P74L) with L74P, Y81A
Procedure: as §1, §2

hRKIP S109A mutant = biological target: T4, hRKIP S109A mutant (Homo sapiens, UniProt P30086, S109A); experiment: BLI assay of suramin binding to hRKIP mutant S109A
T4 construct: made in house; host or cells: E. coli
T4 sequence (P30086 1-187 S109A): T2 sequence (P30086 1-187 P74L) with L74P, S109A
Procedure: as §1, §2

hRKIP K113A mutant = biological target: T5, hRKIP K113A mutant (Homo sapiens, UniProt P30086, K113A); experiment: BLI assay of suramin binding to hRKIP mutant K113A
T5 construct: made in house; host or cells: E. coli
T5 sequence (P30086 1-187 K113A): T2 sequence (P30086 1-187 P74L) with L74P, K113A
Procedure: as §1, §2

hRKIP W173A mutant = biological target: T6, hRKIP W173A mutant (Homo sapiens, UniProt P30086, W173A); experiment: BLI assay of suramin binding to hRKIP mutant W173A
T6 construct: made in house; host or cells: E. coli
T6 sequence (P30086 1-187 W173A): T2 sequence (P30086 1-187 P74L) with L74P, W173A
Procedure: as §1, §2

hRKIP P112L mutant = biological target: T7, hRKIP P112L mutant (Homo sapiens, UniProt P30086, P112L); experiment: BLI assay of suramin binding to hRKIP mutant P112L
T7 construct: made in house; host or cells: E. coli
T7 sequence (P30086 1-187 P112L): T2 sequence (P30086 1-187 P74L) with L74P, P112L
Procedure: as §1, §2

[3] = system: HEK293T cells transfected with hRKIP; experiment: Viability of HEK293T cells transfected with hRKIP; format: cell-based, human
Procedure: We further explored the effects of suramin treatment on hRKIP-mediated Ras/Raf1/MEK/ERK signal pathway by detecting the phosphorylation level of ERK, which could only be activated by MEK [37]. Principally, hRKIP binding with Raf1 inhibits the phosphorylation of Raf1, thereby blocking the following ERK phosphorylation and downregulating the MAPK pathway. […] The transfected cells were then treated with 160 μM suramin. The suramin concentration was experimentally determined as the maximal tolerant concentration for cell viability (Figure 4c), which was consistent with that used usually in clinical patients. […] As a result, the free Raf1 kinase was phosphorylated and the Ras/Raf1/MEK/ERK pathway was promoted with an enhanced phosphorylation level of the following ERK kinase.
Figure 4 Effects of suramin treatment on hRKIP-mediated Ras/Raf1/MEK/ERK pathway in HEK293 cells (a,b) Western blot analysis for the effect of suramin treatment on hRKIP-mediated ERK phosphorylation;(c) Effect of suramin treatment on viabilities of HEK293T cells transfected with hRKIP. (d,e) Western blot analysis for the effect of suramin on the ERK phosphorylation of HEK293T cell. * p <0.1; *** p <0.001; **** p <0.0001, n = 3 for each group.

hRKIP Y181A mutant = biological target: T8, hRKIP Y181A mutant (Homo sapiens, UniProt P30086, Y181A); experiment: BLI assay of suramin binding to hRKIP mutant Y181A
T8 construct: made in house; host or cells: E. coli
T8 sequence (P30086 1-187 Y181A): T2 sequence (P30086 1-187 P74L) with L74P, Y181A
Procedure: as §1, §2

[4] = system: hRKIP-mediated Ras/Raf1/MEK/ERK signal pathway; experiment: ERK phosphorylation (Western blot) in hRKIP-transfected HEK293T cells; format: cell-based, human; conditions: 160 µM suramin, 30 min before EGF stimulation, compared with no suramin treatment
Procedure: (§3) Human HEK293T cells were used as control group. HEK293T cells were first transfected with the exogenous hRKIP gene (the hRKIP-treated group), then the hRKIP transfected cells were serum starved overnight (10 h) and then incubated with 160 μM suramin for 30 min before EGF stimulation (the hRKIP-suramin-treated group). The transfection process was performed as following: 4 μg of pcDNA3.0-hRKIP was mixed with 75 μL lipotap (Beyotime, China), and the mixture was incubated with HEK293T cell in the dulbecco’s modified eagle medium (DMEM) with 100 units/mL penicillin (Sagon, Shanghai, China), 100 μg/mL streptomycin (Sagon, Shanghai, China) and 10% fetal bovine serum (Hyclone, Logan, UT, USA) for 6 h. Then the lipotap-DNA mixture was removed, and the transfected cell was further cultured in fresh medium. For all the three groups, the cells were cultured in DMEM supplemented with serum and […] at 37 °C. At 70% confluency, 10 ng/mL EGF was used to stimulate the Ras/Raf/MEK/ERK signal pathway for 5 min. The reaction was stopped by phosphate-buffered saline. […]
(§4) Cellular assay data are presented as mean ± standard deviation (SD). […] Statistical significances were determined using Student’s t-test. p < 0.05 was considered statistically significant.

[5] = system: phosphorylation level of p-ERK in HEK293T cell; experiment: ERK phosphorylation (Western blot) in HEK293T cells; format: cell-based, human; conditions: 160 μM suramin
Procedure: as §3, §4

T1 sequence (P30086 whole entry): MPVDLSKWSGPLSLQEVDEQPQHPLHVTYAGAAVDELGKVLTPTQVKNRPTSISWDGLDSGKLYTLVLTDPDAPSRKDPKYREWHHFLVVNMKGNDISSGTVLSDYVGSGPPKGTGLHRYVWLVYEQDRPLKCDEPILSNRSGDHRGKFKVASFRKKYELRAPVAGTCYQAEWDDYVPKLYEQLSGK

NCCOP(=O)(O)O [PE, oO-phosphorylethanolamine]
kon (hRKIP [1]; BLI, wild-type RKIP): 3.0 M⁻¹ s⁻¹
dissociation rate (koff) (hRKIP [1]; BLI, wild-type hRKIP): 0.0264 s⁻¹
Kd (hRKIP [2]): 8810 µM

Cc1ccc(C(=O)Nc2ccc(S(=O)(=O)O)c3cc(S(=O)(=O)O)cc(S(=O)(=O)O)c23)cc1NC(=O)c1cccc(NC(=O)Nc2cccc(C(=O)Nc3cc(C(=O)Nc4ccc(S(=O)(=O)O)c5cc(S(=O)(=O)O)cc(S(=O)(=O)O)c45)ccc3C)c2)c1 [suramin, Suramin]
Kd (hRKIP P74L mutant; P74L mutant): 37.1 µM
kobs (hRKIP P74L mutant; P74L mutant): 0.000367 s⁻¹
koff (hRKIP P74L mutant; P74L mutant): 0.000275 s⁻¹
kon (hRKIP P74L mutant; P74L mutant): 7.39 M⁻¹ s⁻¹
decrease of affinity of suramin relative to hRKIP (hRKIP P74L mutant; P74L mutant vs wild type): more than 30%
IC50 (HEK293T cell): 479 µM
Kd (hRKIP Y81A mutant; Y81A mutant): 29.7 µM
kobs (hRKIP Y81A mutant; Y81A mutant): 0.000291 s⁻¹
koff (hRKIP Y81A mutant; Y81A mutant): 0.000158 s⁻¹
kon (hRKIP Y81A mutant; Y81A mutant): 5.31 M⁻¹ s⁻¹
decrease of affinity of suramin relative to hRKIP (hRKIP Y81A mutant; Y81A mutant vs wild type): around 20%
Kd (hRKIP S109A mutant; S109A mutant): 26 µM
kobs (hRKIP S109A mutant; S109A mutant): 0.00295 s⁻¹
koff (hRKIP S109A mutant; S109A mutant): 0.00018 s⁻¹
kon (hRKIP S109A mutant; S109A mutant): 6.93 M⁻¹ s⁻¹
decrease of binding affinity of suramin relative to hRKIP (hRKIP S109A mutant; S109A mutant vs wild type): around 10%
kobs (hRKIP [1]; BLI, wild-type RKIP): 0.00368 s⁻¹
Kd (hRKIP [1]; BLI, wild-type RKIP, 1:1 Langmuir binding model): 23.8 µM
koff (hRKIP [1]; BLI, wild-type RKIP, read-out: koff): 0.000207 s⁻¹
kon (hRKIP [1]; BLI, wild-type RKIP, read-out: kon): 8.69 M⁻¹ s⁻¹
koff (hRKIP [1]; BLI, wild-type hRKIP, read-out: dissociation rate (koff)): 0.0002 s⁻¹
higher affinity for binding to hRKIP compared with PE (hRKIP [1]; ratio of KD values, PE as native substrate): about 370 fold
Kd (hRKIP K113A mutant): 87.2 µM
kobs (hRKIP K113A mutant): 0.00038 s⁻¹
koff (hRKIP K113A mutant): 0.000295 s⁻¹
kon (hRKIP K113A mutant): 3.38 M⁻¹ s⁻¹
Kd (hRKIP W173A mutant): 77.3 µM
kobs (hRKIP W173A mutant): 0.000553 s⁻¹
koff (hRKIP W173A mutant): 0.000241 s⁻¹
kon (hRKIP W173A mutant): 3.12 M⁻¹ s⁻¹
Kd (hRKIP P112L mutant; P112L mutant): 20.4 µM
kobs (hRKIP P112L mutant; P112L mutant): 0.00037 s⁻¹
koff (hRKIP P112L mutant; P112L mutant): 0.000166 s⁻¹
kon (hRKIP P112L mutant; P112L mutant): 8.14 M⁻¹ s⁻¹
change of affinity of suramin relative to hRKIP (hRKIP P112L mutant; P112L mutant vs wild type): slightly increased affinity
maximal tolerant concentration for cell viability [3]: 160 µM
Kd (hRKIP Y181A mutant; Y181A mutant): 711 µM
kobs (hRKIP Y181A mutant; Y181A mutant): 0.000177 s⁻¹
koff (hRKIP Y181A mutant; Y181A mutant): 0.000156 s⁻¹
kon (hRKIP Y181A mutant; Y181A mutant): 0.22 M⁻¹ s⁻¹
decrease of affinity of suramin relative to hRKIP (hRKIP Y181A mutant; Y181A mutant vs wild type): more than 75%
increase of ERK phosphorylation level [4]: around 3 times
enhancement of phosphorylation level of p-ERK [5]: around 48%
